In experiment [1] the test system is cholesterol and bile salt absorption. Description: Intestinal absorption of cholesterol and bile salts by fecal excretion of neutral and acidic sterols. The experiment is classed as in vivo, mouse. The note with it: for Fecal excretion of bile acids / Fecal excretion of neutral sterols: pooled feces; for Fecal excretion of bile acids: days 12-14; for Fecal excretion of neutral sterols: last three days of 14. The procedure:
Surgery and sample harvest. The groups were maintained for 14 days (protocol #1) or 30 days (protocol #2) in the different experimental conditions. During the last three days of the protocols, 24 h depositions were collected from the different groups (pool) to determine the fecal excretion of neutral sterols (cholesterol) and acidic sterols (bile salts). At the end of the time established in the protocols, the mice were anesthetized (between 08:00-10:00 AM) with an intraperitoneal pentobarbital injection in doses of 4.5 mg per 100 gr body weight (Amigo et al., 2000) and subjected to surgery. Standardized surgery consists in an extended […] and visualization of abdominal organs, including liver, biliary tree and gallbladder. First, we performed a resection of the gallbladder (cholecystectomy), with the cystic duct previously ligated (Amigo et al., 2002; Amigo et al., 2000; Amigo et al., 2003b). The gallbladder is removed and visually inspected to determine the presence of gallstones. Then, the gallbladder bile is extracted to analyze the presence of cholesterol crystals in the fresh samples under the microscope with polarized light (20×). Aliquots are stored at −20° C. for subsequent chemical analysis. Afterwards, the common biliary duct is cannulated (biliary fistula) with a P-10 polyethylene cannula to collect bile during 15 minutes, determine bile flow by gravimetry (1 g bile=1 ml; bile flow is expressed as μl/min/g of mouse liver) and for posterior chemical analysis of biliary lipids and glutathione, as specified later. […] Then, the liver is removed, weighted, frozen in liquid nitrogen and stored at −80 for subsequent analyses. The plasma is separated by centrifugation at 1,500 rpm and stored at −80° C. for later analysis. The animal protocols were approved by our institution Ethics Committee and the animals were treated according to international care rules for experimental animals.
Intestinal absorption of cholesterol and bile salts. The capacity of Ezetimibe to inhibit cholesterol and bile salt absorption was indirectly determined by quantification of neutral sterols (cholesterol) and acidic sterols (bile acids) present in the feces collected on day 12, 13 and 14 of the experiment (three days). In order to determine cholesterol (neutral sterols) fecal excretion, the feces were dried at 50° C. for three days and then weighted to obtain an average of fecal excretion per day (in grams). The feces were homogenized in a mortar, and 5 ml 2N NaOH:methanol, 1:1 are added per 100 mg (dry weight) aliquots of the homogenate. The sample is vortex and incubated at 60° C. for 1 h for saponification, then it is cooled and 5 ml petroleum ether is added followed by vigorous agitation to obtain the separation of the hydrophobic and hydrophilic phases. The samples are then centrifuged at 1,000 rpm for 10 minutes and the hydrophobic phase (upper layer) is recovered. Second and third extractions are performed by adding 5 ml petroleum ether to the hydrophilic phase. The hydrophobic phases are dried under gaseous nitrogen and the lipids are resuspended in 1 ml chloroform. 50 μl aliquots, in duplicate, are dried at room temperature, and total cholesterol is quantified according to the enzymatic method described above. The values obtained are expressed as μmoles cholesterol/day/100 g of mouse (Miettinen et al., 1965). In order to determine fecal excretion of bile acids the mice feces were collected during three days (days 12-14), dried at 50° C. for one week and weighted. The feces are then homogenized in a mortar; (^14C) cholic acid, 200,000 cpm is added to 1 g of the homogenate to determine the degree of recovery. The samples are then mixed with NaBr, NaOH and HCl, dissolved in ethanol and incubated at 120° C. for 8 h in a reflux system. The hydrolyzed fecal samples are resuspended in NaOH and dried under gaseous N2. The pellet obtained is resuspended in ethanol and run through Sep-Pak columns to eliminate all bile salts contaminants. […]

Experiment [2] relates to cholesterol absorption. The conditions noted are these: relative to SCH 48461; cited from earlier work.

The text below walks through data of patent US8361999B2, “Methods of treating cholesterol gallstone disease with ezetimibe” (Pontificia Universidad Catolica de Chile, priority 2005, dated 2013).

For `O=C1[C@H](CC[C@H](O)c2ccc(F)cc2)[C@@H](c2ccc(O)cc2)N1c1ccc(F)cc1` [Ezetimibe, (−)-1-(4-fluorophenyl)-(3R)-[3-(4-fluorophenyl)-(.S)-hydroxypropyl]-(4S)-(4-hydroxyphenyl)-2-azetidinone], in experiment [1] (Chow + Ezetimibe), the “Fecal excretion of bile acids” value was 55.42 μmol/day/100 g mouse and the “Fecal excretion of neutral sterols” value came out at 19.98 μmol/day/100 g mouse. Also, in experiment [1] (Lithogenic + Ezetimibe), the “Fecal excretion of bile acids” value came out at 909.20 μmol/day/100 g mouse and the “Fecal excretion of neutral sterols” value is recorded as 165.79 μmol/day/100 g mouse. Also, the “effect on fecal excretion of bile salts” value in experiment [1] (both on control and lithogenic diets) is given as “does not significantly affect”. Further, the “increment of fecal excretion of neutral sterols vs control diet without Ezetimibe” value in experiment [1] (control diet) worked out at 37%. In addition, in experiment [1] (lithogenic diet), the “fecal excretion of neutral sterols (cholesterol) higher than in mice not treated with Ezetimibe” value worked out at 55%. Moreover, in experiment [2], the “inhibitory activity in cholesterol absorption higher than predecessor analog (SCH 48461)” value is given as 400 times.
